# Patent publication US12384753B2, “17-beta-hydroxysteroid dehydrogenase type 13 inhibitors and methods of use thereof” (Enanta Pharmaceuticals, Inc., priority 2021, dated 2025)
# Target: Recombinant human HSD17B13 (Homo sapiens (Human), UniProt Q7Z5P4)
# Assay: HSD17B13 rapid-fire mass spectrometry assay (RF/MS assay)
# Assay type: biochemical
# Conditions: inhibition of HSD17B13; LTB4 10 μM, NAD+ 0.5 mM, RT 3 h; IC50 ranges A-E
# Excerpt: HSD17B13 rapid-fire mass spectrometry assay (RF/MS assay). Recombinant human HSD17B13 was expressed and purified from sf9 cells at Charles River Labs (Saffron Walden, UK). Leukotriene B4 (Catalog #71160-24-2) and 12-oxoleukotriene B4 (Catalog #20140) were purchased from Cayman Chemicals (Ann Arbor, Michigan.). NAD+ (Catalog #N8285), BSA (Catalog #A7030), DMSO (Catalog #D2650), and Tween-20 (Catalog #11332465001) were purchased from Sigma (St. Louis, MO). Formic acid (Catalog #28905) was from ThermoFisher Scientific and 384 deep well PP microplates (Catalog #784261) were from Greiner Bio-One. In a typical IC50 assay performed in a 384w PP microplate, test compounds (0-100 μM) were incubated with HSD17B13 (80 nM), LTB4 (10 μM), and NAD^+ (0.5 mM) in 10 μL assay buffer (20 mM Tris (pH 7.5), BSA (0.005%), and Tween-20 (0.01%)) at RT for 3 h. The assays were quenched by adding 20 μL of 0.15% aqueous formic acid and the plates were frozen at −80° C. RF/MS analysis was performed at PureHoney Technologies (Billerica, MA) on a RapidFire RF300 system (Agilent Technologies, Inc.) coupled to an API 4000 triple quadrupole mass spectrometer (Sciex) equipped with Agilent RapidFire cartridge type A (C4). The mobile phase was 0.09% formic acid and 0.01% trifluoracetic acid in water (Buffer A) and 0.09% formic acid and 0.01% trifluoracetic acid in 80% aqueous acetonitrile (Buffer B). The RapidFire method conditions were the following: 250 ms aspirate, 3000 ms load/desalt, 4000 ms elute, and 500 ms re-equilibrate. RF-MS/MS was performed in negative polarity (−4500 V), the source temperature was 650° C., and gas 1 and gas 2 settings for nitrogen were set to 50. The curtain gas and collision gas were also nitrogen and were set to 20 and 12, respectively. Leukotriene B4 (335.3) and 12-oxoLeukotriene B4 (333.3) SRM transitions were optimized with Discovery Quant software and extracted ion counts for these analytes were determined.
# Data Analysis. HSD17B13 enzyme activity was measured as percent conversion of extracted ion counts and normalized to high and low controls to determine percent residual activity at various concentrations of test compounds. Data were fitted to normalized activity (variable slope) versus concentration fit in GraphPad Prism 7 to determine IC50. All experiments were run in duplicates.
# By using above method, the inhibition of HSD17B13 was evaluated for the compounds of Formula (I). IC50 ranges are as follows: A=IC50<0.100 μM; B=0.100 μM<IC50<0.500 μM; C=0.500 μM<IC50<1 μM; D=1 μM<IC50<100 μM; E=IC50>100 μM
# Chain of Recombinant human HSD17B13 (Q7Z5P4 20-300): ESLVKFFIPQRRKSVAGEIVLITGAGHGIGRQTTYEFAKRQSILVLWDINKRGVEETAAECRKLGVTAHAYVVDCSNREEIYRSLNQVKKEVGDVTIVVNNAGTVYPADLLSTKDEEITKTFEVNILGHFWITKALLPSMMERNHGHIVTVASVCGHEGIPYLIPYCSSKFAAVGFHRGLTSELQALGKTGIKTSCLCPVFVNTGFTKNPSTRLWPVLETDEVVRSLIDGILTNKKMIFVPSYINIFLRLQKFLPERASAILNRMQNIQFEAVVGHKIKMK
row,IC50,SMILES
1,< 100 nM,CCOc1c(C2=CCC(C(C)C)CC2)ccc(-c2nc(S(=O)(=O)Nc3cc(F)c(C(=O)O)cc3OC)cs2)c1F (stereo not shown) [Example 809]
2,100 to 500 nM,COc1cc(C(=O)O)c(F)cc1NS(=O)(=O)c1ccc2sc(-c3ccc(C4CCC4)cc3)nc2c1 [Example 663]
3,1000 to 100000 nM,COc1ccc(CC2CCCN(c3nc(S(=O)(=O)Nc4ccc(C(=O)O)cc4OC)cs3)C2)cc1 (stereo not shown) [Example 275]
4,100 to 500 nM,COc1cc(C(=O)O)c(F)cc1NS(=O)(=O)c1csc(-c2ccc(C3=CCC(C)(C)CC3)c(OC(C)C)c2F)n1 [Example 564]
5,< 100 nM,COc1cc(C(=O)O)c(F)cc1NS(=O)(=O)c1csc(-c2ccc(C3CCC(C)(C)CC3)cc2C(F)F)n1 [Example 591]
6,100 to 500 nM,COc1cc(C(=O)O)c(F)cc1NS(=O)(=O)c1csc(-c2ccc(C3CCC(C(F)(F)F)CC3)c(OC(C)C)c2F)n1 (stereo not shown) [Example 811]
7,< 100 nM,"COc1cc(C(=O)O)ccc1NS(=O)(=O)N1Cc2nc(C3CCC(c4ccccc4)CC3)sc2C1 (stereo not shown) [Example 376, 3-methoxy-4-((2-(4-phenylcyclohexyl)-5,6-dihydro-4H-pyrrolo[3,4-d]thiazole)-5-sulfonamido)benzoic acid]"
8,< 100 nM,COc1cc(C(=O)O)c(F)cc1NS(=O)(=O)c1csc(-c2ccc(C3=CCC(C)(C)CC3)cc2OC(F)(F)F)n1 [Example 542]
9,< 100 nM,COc1cc(C(=O)O)c(F)cc1NS(=O)(=O)c1cnc(-c2ccc([C@H]3CC[C@@H](C(F)(F)F)CC3)cc2)s1 [Example 724]
10,< 100 nM,COc1cc(C(=O)O)c(F)cc1NS(=O)(=O)c1coc(-c2ccc(C3CCC(C)(C)CC3)cc2C(F)(F)F)n1 [Example 676]
11,500 to 1000 nM,COc1cc(C(=O)O)ccc1NS(=O)(=O)c1ccc(-c2cccc(-c3ccc(OC(F)(F)F)cc3)c2)s1 [Example 254]
12,< 100 nM,COc1cc(C(=O)O)ccc1NS(=O)(=O)c1csc(C#Cc2ccccc2C(F)(F)F)n1 [Example 225]
13,100 to 500 nM,CCCCC[C@H]1CC[C@H](c2ccc(-c3nc(S(=O)(=O)Nc4ccc(C(=O)O)cc4OC)cs3)c(F)c2)CC1 [Example 707]
14,100 to 500 nM,COc1cc(C(=O)O)ccc1NS(=O)(=O)c1csc(-c2ccc3cnccc3c2)n1 [Example 405]
15,1000 to 100000 nM,COc1cc(C(=O)O)ccc1NS(=O)(=O)c1cnn(-c2ccc(F)cc2)c1 [Example 79]
16,< 100 nM,CCCCC[C@H]1CC[C@H](c2ccc(-c3nc(S(=O)(=O)Nc4ccc(C(=O)O)cc4OC)cs3)cc2)CC1 [Example 508]
17,1000 to 100000 nM,O=C(O)c1ccc(NS(=O)(=O)c2cnc(-c3ccc(F)cc3)s2)s1 [Example 77]
18,1000 to 100000 nM,COc1cc(C(=O)O)ccc1NS(=O)(=O)c1csc(N2CCN(C(=O)OC(C)C)CC2)n1 [Example 309]
19,< 100 nM,CCOc1c(C2CCC(C)(C)CC2)ccc(-c2nc(S(=O)(=O)Nc3cc(F)c(C(=O)O)cc3OC)cs2)c1F [Example 570]
20,500 to 1000 nM,COc1cc(C(=O)O)ccc1S(=O)(=O)Nc1csc(-c2ccccc2)n1 [Example 103]
21,100 to 500 nM,COc1cc(C(=O)O)c(F)cc1NS(=O)(=O)c1csc(-c2ccc(-c3ccccn3)cc2)n1 [Example 635]
22,500 to 1000 nM,COc1cc(C(=O)O)ccc1NS(=O)(=O)c1ccc(-c2ccccc2)s1 [Example 149]
23,100 to 500 nM,COc1cc(C(=O)O)ccc1NS(=O)(=O)c1cnc(-c2ccc(F)cc2)s1 [Example 161]
24,< 100 nM,COc1ccccc1C#Cc1nc(S(=O)(=O)Nc2ccc(C(=O)O)cc2OC)cs1 [Example 195]
25,100 to 500 nM,COc1cc(C(=O)O)ccc1NS(=O)(=O)c1csc(-c2ccc(C3CCC(OC)CC3)cc2)n1 (stereo not shown) [Example 380]
26,1000 to 100000 nM,COc1cc(OC(F)F)ccc1NS(=O)(=O)c1cnc(-c2ccc(F)cc2)s1 [Example 122]
27,< 100 nM,COc1cc(C(=O)O)ccc1NS(=O)(=O)c1ccc(-c2cccc(F)c2)s1 [Example 208]

row,IC50,SMILES
1,1000 to 100000 nM,"COc1cc(C(=O)O)ccc1NS(=O)(=O)N1CCCC(Oc2ccccc2)C1 (stereo not shown) [Example 320, 3-methoxy-4-((3-phenoxypiperidine)-1-sulfonamido)benzoic acid]"
2,< 100 nM,COc1cc(C(=O)O)c(F)cc1NS(=O)(=O)c1csc(-c2ccc(C3=CCC(C)(C)CC3)c(OC)c2)n1 [Example 523]
3,100 to 500 nM,COc1cc(C(=O)O)ccc1NS(=O)(=O)c1ccc(-c2cccc(-c3ccc(F)cc3)c2)s1 [Example 251]
4,100 to 500 nM,COc1cc(C(=O)O)ccc1NS(=O)(=O)c1coc(-c2ccc([C@H]3CC[C@H](C(F)(F)F)CC3)cc2)n1 [Example 610]
5,100 to 500 nM,COc1cc(C(=O)O)ccc1NS(=O)(=O)c1csc(-c2ccc(F)cc2)n1 [Example 749]
6,500 to 1000 nM,COc1cc(C#Cc2nc(S(=O)(=O)Nc3ccc(C(=O)O)cc3OC)cs2)ccn1 [Example 246]
7,100 to 500 nM,COc1cc(C(=O)O)ccc1NS(=O)(=O)c1csc(-c2cccc(O)c2)n1 [Example 146]
8,100 to 500 nM,COc1cc(C(=O)O)ccc1NS(=O)(=O)c1cnc(-c2ccc(-c3ccc(C(F)(F)F)c(C(F)(F)F)c3)cc2)s1 [Example 710]
9,> 100000 nM,"COc1cc2c(cc1C(=O)O)CN(S(=O)(=O)c1ccc(F)cc1)CC2 [Example 5, 2-((4-fluorophenyl)sulfonyl)-6-methoxy-1,2,3,4-tetrahydroisoquinoline-7-carboxylic acid]"
10,500 to 1000 nM,COc1cc(C(=O)O)ccc1NS(=O)(=O)c1csc(N2CCN(c3ccccc3)CC2)n1 [Example 257]
11,< 100 nM,COc1cc(C(=O)O)c(F)cc1NS(=O)(=O)c1csc(C#Cc2ccc(F)cc2)n1 [Example 222]
12,< 100 nM,COc1cc(C(=O)O)c(F)cc1NS(=O)(=O)c1csc(-c2ccc(C3=CCC(C(C)C)CC3)cc2C(F)(F)F)n1 (stereo not shown) [Example 741]
13,< 100 nM,COc1cc(C(=O)O)c(F)cc1NS(=O)(=O)c1csc(-c2ccc(C3=CCC(C(F)(F)F)CC3)cc2C(F)(F)F)n1 (stereo not shown) [Example 601]
14,500 to 1000 nM,COc1cc(C(=O)O)ccc1NS(=O)(=O)c1csc(-c2cccc3ccccc23)n1 [Example 151]
15,1000 to 100000 nM,"Cc1sc(-c2ccc(F)cc2)nc1S(=O)(=O)Nc1ccc(C(=O)O)cc1 [Example 55, 4-((2-(4-fluorophenyl)-5-methylthiazole)-4-sulfonamido)benzoic acid]"
16,100 to 500 nM,COc1cc(C(=O)O)ccc1NS(=O)(=O)c1ccc(-c2ccc(-c3ccc(F)cc3)cc2)s1 [Example 205]
17,< 100 nM,COc1cc(C(=O)O)ccc1NS(=O)(=O)c1csc(-c2ccc(C3CCC(C)(C)CC3)cc2)n1 [Example 336]
18,100 to 500 nM,"COc1cc(C(=O)O)ccc1NS(=O)(=O)c1cccc(C#Cc2cccc(OC(F)(F)F)c2)n1 [Example 463, 3-methoxy-4-((6-((3-(trifluoromethoxy)phenyl)ethynyl)pyridine)-2-sulfonamido)benzoic acid]"
19,100 to 500 nM,COc1cc(C(=O)O)ccc1NS(=O)(=O)c1ccc(-c2ccc(F)cc2)cc1F [Example 333]
20,100 to 500 nM,COc1cc(C(=O)O)c(F)cc1NS(=O)(=O)c1ccc2sc(-c3ccc([C@H]4CC[C@H](C(C)C)CC4)cc3C(F)(F)F)nc2c1 [Example 798]
21,500 to 1000 nM,"COc1cc(C(=O)O)ccc1NS(=O)(=O)c1cccc(-c2ccc(F)cc2)n1 [Example 411, 4-((6-(4-fluorophenyl)pyridine)-2-sulfonamido)-3-methoxybenzoic acid]"
22,1000 to 100000 nM,Cc1cc(C(=O)O)ccc1NS(=O)(=O)c1cnc(-c2ccc(F)cc2)s1 [Example 20]
23,1000 to 100000 nM,COc1cc(C(=O)O)ccc1NS(=O)(=O)c1csc(-c2ccc(C(=O)O)cc2OC)n1 [Example 322]
24,< 100 nM,COc1cc(C(=O)O)ccc1NS(=O)(=O)c1coc(-c2ccc(C)cc2)n1 [Example 413]
25,100 to 500 nM,COc1cc(C(=O)O)ccc1NS(=O)(=O)c1cnc(C#Cc2ccccc2)s1 [Example 169]
26,100 to 500 nM,CC[C@H]1CC[C@@H](c2ccc(-c3nc(S(=O)(=O)Nc4ccc(C(=O)O)cc4OC)co3)cc2)CC1 [Example 481]
27,100 to 500 nM,COc1cc(C(=O)O)ccc1NS(=O)(=O)N1Cc2nc(-c3ccc4c(c3)OCCO4)sc2C1 [Example 384]

row,SMILES,IC50
1,COc1cc(C(=O)O)c(F)cc1NS(=O)(=O)c1csc(-c2ccc(-c3ccc(C45CC6C[C@H](C4)C[C@H](C6)C5)cc3)cc2F)n1 [Example 760],< 100 nM
